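Briefly, cells in 96-well plates were exposed to five compound concentrations for 48 h, and endpoints were estimated by linear interpolation. GI50: concentration for 50% inhibition of growth. At the TGI there is no net growth.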
What was measured:
Assay in all cases: NCI tumour cell line growth inhibition, 48 h
TK-10 renal = test system: TK-10 renal
SF-539 CNS = test system: SF-539 CNS
CCRF-CEM leukemia = test system: CCRF-CEM leukemia
SN12C renal = test system: SN12C renal
NCI-H460 lung = test system: NCI-H460 lung
SK-MEL-2 melanoma = test system: SK-MEL-2 melanoma
SR leukemia = test system: SR leukemia
OVCAR-3 ovarian = test system: OVCAR-3 ovarian
NCI-H226 lung = test system: NCI-H226 lung
HCT-15 colon = test system: HCT-15 colon
OVCAR-8 ovarian = test system: OVCAR-8 ovarian
HS 578T breast = test system: HS 578T breast
HL-60(TB) leukemia = test system: HL-60(TB) leukemia
IGROV1 ovarian = test system: IGROV1 ovarian
SW-620 colon = test system: SW-620 colon
MDA-MB-435 = test system: MDA-MB-435
HOP-92 NSCLC = test system: HOP-92 NSCLC
RPMI-8226 leukemia = test system: RPMI-8226 leukemia
KM12 colon = test system: KM12 colon
SNB-19 CNS = test system: SNB-19 CNS
SK-MEL-5 melanoma = test system: SK-MEL-5 melanoma
HOP-62 NSCLC = test system: HOP-62 NSCLC
LOX IMVI melanoma = test system: LOX IMVI melanoma
NCI-H23 lung = test system: NCI-H23 lung
SK-OV-3 ovarian = test system: SK-OV-3 ovarian
NCI/ADR-RES ovarian = test system: NCI/ADR-RES ovarian
EKVX NSCLC = test system: EKVX NSCLC
HCC-2998 colon = test system: HCC-2998 colon
BT-549 breast = test system: BT-549 breast
ACHN renal = test system: ACHN renal
786-0 renal = test system: 786-0 renal
HT29 colon = test system: HT29 colon
MALME-3M melanoma = test system: MALME-3M melanoma
UO-31 renal = test system: UO-31 renal
U251 CNS = test system: U251 CNS
SNB-75 CNS = test system: SNB-75 CNS
SF-295 CNS = test system: SF-295 CNS
OVCAR-4 ovarian = test system: OVCAR-4 ovarian
A549 NSCLC = test system: A549 NSCLC
M14 melanoma = test system: M14 melanoma
UACC-62 melanoma = test system: UACC-62 melanoma
PC-3 prostate = test system: PC-3 prostate
MCF7 breast = test system: MCF7 breast
DU-145 prostate = test system: DU-145 prostate
RXF 393 renal = test system: RXF 393 renal
SF-268 CNS = test system: SF-268 CNS
MOLT-4 leukemia = test system: MOLT-4 leukemia
CAKI-1 renal = test system: CAKI-1 renal
HCT-116 colon = test system: HCT-116 colon
OVCAR-5 ovarian = test system: OVCAR-5 ovarian
T-47D breast = test system: T-47D breast
MDA-MB-231 breast = test system: MDA-MB-231 breast
NCI-H522 lung = test system: NCI-H522 lung
K-562 leukemia = test system: K-562 leukemia
SK-MEL-28 melanoma = test system: SK-MEL-28 melanoma
COLO 205 colon = test system: COLO 205 colon
UACC-257 melanoma = test system: UACC-257 melanoma

## COc1ccc(CNc2nc3cc(N)cc(N)c3nc2-c2ccccc2)cc1OC
TK-10 renal
  GI50: 16.8 µM
  TGI: 32.8 µM
SF-539 CNS
  GI50: 18.9 µM
  TGI: 41.1 µM
CCRF-CEM leukemia
  GI50: 3.48 µM
  TGI: 71.5 µM
SN12C renal
  GI50: 14 µM
  TGI: 27.9 µM
NCI-H460 lung
  GI50: 27.1 µM
  TGI: > 95.3 µM
SK-MEL-2 melanoma
  GI50: 13.9 µM
  TGI: 49.5 µM
SR leukemia
  GI50: 2.94 µM
  TGI: 25.9 µM
OVCAR-3 ovarian
  GI50: 1.31 µM
  TGI: 3.33 µM
NCI-H226 lung
  GI50: 15.4 µM
  TGI: 30.8 µM
HCT-15 colon
  GI50: 28 µM
  TGI: > 94.1 µM
OVCAR-8 ovarian
  GI50: 10.5 µM
  TGI: 32.1 µM
HS 578T breast
  GI50: 23.4 µM
  TGI: > 68.6 µM
HL-60(TB) leukemia
  GI50: 3.17 µM
  TGI: > 89.9 µM
IGROV1 ovarian
  GI50: 13.5 µM
  TGI: 38.1 µM
SW-620 colon
  GI50: 7.77 µM
  TGI: > 58.9 µM
MDA-MB-435
  GI50: 2.07 µM
  TGI: 4.05 µM
HOP-92 NSCLC
  GI50: 13.4 µM
  TGI: 29.8 µM
RPMI-8226 leukemia
  GI50: 3.14 µM
  TGI: 13.5 µM
KM12 colon
  GI50: 12.8 µM
  TGI: 28.4 µM
SNB-19 CNS
  GI50: 20.1 µM
  TGI: > 61 µM
SK-MEL-5 melanoma
  GI50: 9.27 µM
  TGI: 25.3 µM
HOP-62 NSCLC
  GI50: 18.8 µM
  TGI: 34.4 µM
LOX IMVI melanoma
  GI50: 6.53 µM
  TGI: > 37.6 µM
NCI-H23 lung
  GI50: 16.9 µM
  TGI: 35.7 µM
SK-OV-3 ovarian
  GI50: 22.8 µM
  TGI: 45.6 µM
NCI/ADR-RES ovarian
  GI50: 17.7 µM
  TGI: 58.2 µM
EKVX NSCLC
  GI50: 13 µM
  TGI: 44.6 µM
HCC-2998 colon
  GI50: 17 µM
  TGI: 39.8 µM
BT-549 breast
  GI50: 14.8 µM
  TGI: 32.5 µM
ACHN renal
  GI50: 14.4 µM
  TGI: 32 µM
786-0 renal
  GI50: 15.7 µM
  TGI: 33.5 µM
HT29 colon
  GI50: 7.26 µM
  TGI: 46.2 µM
MALME-3M melanoma
  GI50: 3.98 µM
  TGI: 14.4 µM
UO-31 renal
  GI50: 15 µM
  TGI: 40.7 µM
U251 CNS
  GI50: 17.3 µM
  TGI: 38.1 µM
SNB-75 CNS
  GI50: 14.1 µM
  TGI: 37.4 µM
SF-295 CNS
  GI50: 15.3 µM
  TGI: 29.8 µM
OVCAR-4 ovarian
  GI50: 7.36 µM
  TGI: 26.5 µM
A549 NSCLC
  GI50: 23.6 µM
  TGI: > 70.6 µM
M14 melanoma
  GI50: 8.56 µM
  TGI: 15.6 µM
UACC-62 melanoma
  GI50: 11.7 µM
  TGI: 24.9 µM
PC-3 prostate
  GI50: 10.9 µM
  TGI: 29.1 µM
MCF7 breast
  GI50: 20.9 µM
  TGI: > 63.2 µM
DU-145 prostate
  GI50: 41 µM
  TGI: > 93.6 µM
RXF 393 renal
  GI50: 12.7 µM
  TGI: > 93.5 µM
SF-268 CNS
  GI50: 16.6 µM
  TGI: 65.9 µM
MOLT-4 leukemia
  GI50: 3.92 µM
  TGI: > 100 µM
CAKI-1 renal
  GI50: 12.6 µM
  TGI: 26.2 µM
HCT-116 colon
  GI50: 15.4 µM
  TGI: 31.5 µM
OVCAR-5 ovarian
  GI50: 20.6 µM
  TGI: 38.9 µM
T-47D breast
  GI50: 4.16 µM
  TGI: > 27.5 µM
MDA-MB-231 breast
  GI50: 4.27 µM
  TGI: 10.6 µM
NCI-H522 lung
  GI50: 8.16 µM
  TGI: 24.6 µM
K-562 leukemia
  GI50: 10.9 µM
  TGI: > 100 µM
SK-MEL-28 melanoma
  GI50: 15 µM
  TGI: 33.8 µM
COLO 205 colon
  GI50: 7.15 µM
  TGI: > 48.8 µM
UACC-257 melanoma
  GI50: 14.7 µM
  TGI: 29.2 µM
